Calls of active or inactive are those of the source. No cut-off for these calls is given here.
Experiments:
[1] = system: Trichophyton mentagrophytes; assay: Antifungal activity against Trichophyton mentagrophytes at 60 ug/disk; type: functional; conditions: for zone of inhibition at 60 µg/disc: read-out: IZ
P388 = assay: Cytotoxicity against mouse P388 cells; type: functional, cell-based
Bacillus subtilis = assay: Antibacterial activity against Bacillus subtilis at 60 ug/disk; type: functional; conditions: for zone of inhibition at 60 µg/disc: read-out: IZ
Poliovirus 1 = assay: Antiviral activity against Human poliovirus 1 at 40 ug/well; type: functional, organism-based

Structure (SMILES) | zone of inhibition at 60 µg/disc [1] | IC50 (P388) | zone of inhibition at 60 µg/disc (Bacillus subtilis) | Activity [1] | Activity (Poliovirus 1) | Activity (Bacillus subtilis)
COc1cc([C@H]2[C@@H](O)N(C)C(=O)[C@]23CCCN3C)c(Br)cc1Br [AMATHASPIRAMIDE A] | 1 mm | > 12.5 µg/mL | 1 mm |  |  | 
COc1cc([C@H]2[C@@H](O)N(C)C(=O)[C@]23CCC(=O)N3C)c(Br)cc1Br [AMATHASPIRAMIDE B] |  | > 12.5 µg/mL |  | inactive | inactive | inactive
COc1cc([C@H]2[C@@H](O)N(C)C(=O)[C@]23CCCN3)c(Br)cc1Br [AMATHASPIRAMIDE C] |  | > 12.5 µg/mL |  | inactive | inactive | inactive
COc1cc([C@H]2[C@@H](O)N(C)C(=O)[C@]23CCC=N3)c(Br)cc1Br [AMATHASPIRAMIDE E] | 1 mm | > 12.5 µg/mL | 1 mm |  | Active | 

— ChEMBL document CHEMBL1141842, “Amathaspiramides A-F, novel brominated alkaloids from the marine bryozoan amathia wilsoni” (J Nat Prod, 1999)
